Drawing on PubChem BioAssay AID602217 (Sanford-Burnham Center for Chemical Genomics, 2012), this text covers IC50 for 79 compounds.

pIC50: −log10 of the molar value. Activity calls are given as the source filed them.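 How the source made its calls: active means IC50 at or below a set limit; inactive means the rest.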 Where only a bound is given, the exact number is not on record here.

The subject of the experiment is HL-1 cardiomyocytes, 2-deoxyglucose injury, ATPLite luminescence, 2 h. Nature of the experiment: protection of HL-1 cardiomyocytes from 2-deoxyglucose injury, dose response, cell-based, ATPLite luminescence (AID 602217).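 Further: cells kept in glucose-free DMEM during the 2-deoxyglucose injury; potency of protection where actives preserve ATP signal against 2-deoxyglucose stress.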
The term IC50 denotes the point on the concentration scale where inhibition reaches its midpoint. On to `Cc1[nH]c2ccccc2c1/C=N/NC(=O)c1cc(-c2cccs2)[nH]n1`, for which the IC50 was > 79 µM (inactive).

As for `COc1ccc(-c2cc(-c3nnc(COC(=O)c4ccncc4)o3)c3ccccc3n2)cc1OC`, the IC50 was 24.7 µM (inactive). `CC(=O)Nc1cccc(-c2cc(NC=O)c3ncc(-c4ccc(C(C)=O)cc4)n3c2)c1`: the IC50 was 23.1 µM (inactive). Same read-out and setting: with `N#C/C(=C\Nc1ccc2c(c1)OCCO2)c1nc2ccccc2[nH]1` the figure was > 79 µM (inactive). As usually defined, the pIC50 is the IC50 on a negative log10 scale, so that one unit is a factor of ten. In the case of `O=C(CN1CCN(c2ccccn2)CC1)Nc1ccc([N+](=O)[O-])cc1C(=O)Nc1ccccc1F`, the pIC50 is 4.75. With `COc1ccc(NC(=O)c2cc(-c3ccccn3)nc3ccccc23)cc1S(=O)(=O)N(C)C`, the IC50 was 20.5 µM (inactive).

Take `CC(=O)c1cccc(Nc2nc3ccccc3n3cnnc23)c1`: the IC50 is > 79 µM (inactive). As to `COc1cccc(-c2cnc3c(NC=O)cc(-c4cccc(NC(C)=O)c4)cn23)c1`, the negative-log IC50 (pIC50) was 4.75. For `Cc1cccc(NC(=O)c2oc3ccc(S(=O)(=O)N4CCOCC4)cc3c2C)c1C`, the IC50 is 30.5 µM (inactive). On to `COc1ccccc1CN(C(=O)CNC(=O)c1ccco1)C(C(=O)NCC1CCCO1)c1ccccc1` (centres undefined), for which the IC50 is 71.3 µM (inactive). For the compound `CCOc1ccc(-n2cc(-c3ccccc3)c3c(N4CCOCC4)ncnc32)cc1`, the pIC50 is 5.12. On the same count and under the same terms, with `O=C(Nc1ccccc1)c1nc[nH]c1C(=O)NCCCCNC(=O)c1[nH]cnc1C(=O)Nc1ccccc1` the figure was 5.20. As to `COc1ccc(C(=O)O/N=C(/c2ccccc2)c2ccncc2)cc1OC`, the IC50 is > 79 µM (inactive). For `CCOc1ccc(C(C(=O)NCC2CCCO2)N(C(=O)c2snc(C(N)=O)c2N)c2ccccc2F)cc1` (centres undefined), the IC50 is 44.3 µM (inactive). In the case of `COc1ccccc1NC(=O)c1cc(-c2ccc(OC)c(OC)c2)nc2ccccc12`, the pIC50 was 4.81.

In the case of `CC(C)(C)OC(=O)CNC(=O)c1[nH]cnc1C(=O)NCC(=O)OCc1ccccc1`, the IC50 was 21.7 µM (inactive). As for `CCOc1ncccc1C(=O)Nc1cccc(-c2nc3cccnc3s2)c1`, the IC50 was > 79 µM (inactive). Still for that read-out and setting: with `COc1ccc(OC)c(/C=N/NC(=O)c2cc3c(OC)c(OC)ccc3[nH]2)c1` the figure was > 79 µM (inactive). As to `CC12C=CC(=O)CC1CCC1C2CCC2(C)C(O)C(O)CC12` (centres undefined), the IC50 was > 79 µM (inactive). On to `NC(=O)c1nsc(C(=O)N(c2ccccc2F)C(C(=O)NCc2ccc(F)cc2)c2ccc(O)cc2)c1N` (centres undefined), for which the negative-log IC50 (pIC50) is 5.04.

Consider `CCOC(=O)C(Cc1ccc(NC(=O)/C(=C/c2ccc(OC(C)=O)cc2)NC(C)=O)cc1)N1C(=O)c2ccccc2C1=O` (centres undefined), for which the IC50 was 52.5 µM (inactive).

`COc1cc(/C=N/NC(=O)NC23CC4CC(CC(C4)C2)C3)ccc1OCC(N)=O`: the IC50 is > 79 µM (inactive). As to `CCOC(=O)C1CCN(c2cc3c(cc2NC(=O)c2ccc(OC)c(OC)c2)n(C)c(=O)n3C)CC1`, the IC50 is > 79 µM (inactive). For the compound `NC(=O)c1nsc(C(=O)N(c2ccccc2F)C(C(=O)NCc2ccccc2)c2ccc(O)cc2)c1N` (centres undefined), the pIC50 is 4.96. Still for that read-out and setting: with `Cn1c(=O)c2[nH]c(NN=Cc3ccc(Br)cc3)nc2n(C)c1=O` the figure was 4.99. For `COc1cc(C(=O)N/N=C/c2ccc(OC(=O)c3cccc(C)c3)c(OC)c2)ccc1O`, the IC50 was > 79 µM (inactive). In the case of `CCOc1ccccc1NC(=O)c1oc2ccccc2c1NC(=O)C1CCCO1` (centres undefined), the IC50 is > 79 µM (inactive).

On to `CC(C)(C)OC(=O)N1CCC(NC(=O)c2nc[nH]c2C(=O)NCC(=O)OCc2ccccc2)CC1`, for which the IC50 was 25.8 µM (inactive).

As for `O=C(C(=O)N(Cc1ccccc1)Cc1ccccc1)c1c(-c2ccccc2)[nH]c2ccccc12`, the negative-log IC50 (pIC50) is 5.32. In the case of `COc1ccc(-c2csc(NC(=O)c3cccc(N4C(=O)CCC4=O)c3)n2)cc1OC`, the IC50 is 29.9 µM (inactive). Turning to `Cc1ccc(-n2cc(-c3ccccc3)c3c(N4CCOCC4)ncnc32)cc1`, the pIC50 is 5.11. On the same count and under the same terms, under `Cc1ccc(C)c(NC(=O)C(Sc2nc3ccccc3c(=O)n2CC(C)C)c2ccccc2)c1` (centres undefined) stands 5.94. Take `COc1ccc(-c2cc(NC=O)c3ncc(-c4ccc(C(C)=O)cc4)n3c2)cn1`: the IC50 is 22.2 µM (inactive).

In the case of `COc1ccc(C(C(=O)NCc2ccccc2)N(Cc2ccco2)C(=O)c2snc(C(N)=O)c2N)cc1` (centres undefined), the IC50 was 39.5 µM (inactive). Regarding `CC(=O)c1ccc(-c2ccc(C(=O)Nc3nc(-c4ccccn4)cs3)o2)cc1`, the IC50 was > 79 µM (inactive). With `Nc1c(C(=O)N/N=C/c2cccnc2)oc2nc(-c3ccco3)cc(-c3ccco3)c12`, the IC50 is > 79 µM (inactive). Consider `CCn1nc(C(=O)Nc2nc(-c3ccccn3)cs2)c2ccccc2c1=O`, for which the pIC50 was 4.89. For the compound `COc1cccc(-c2cnc3c(NC=O)cc(-c4ccc(O)c(OC)c4)cn23)c1`, the IC50 is 27.4 µM (inactive). With `Cn1c(=O)c2[nH]c(NN=Cc3cccc(Br)c3)nc2n(C)c1=O`, the pIC50 was 4.75. Turning to `COc1ccc(/C=N/NC(=O)c2ccc(COc3cccc4cccnc34)cc2)cc1OC`, the IC50 was > 79 µM (inactive). Still for that read-out and setting: under `Cc1nc(N2CCN(c3ccccn3)CC2)c2c(C)c(C(=O)Nc3ccc(F)cc3)sc2n1` stands > 79 µM (inactive). For the compound `COc1ccc2[nH]c(=O)c(CN(Cc3cccnc3)S(=O)(=O)c3ccccc3F)cc2c1`, the pIC50 was 4.74. On to `COc1ccc(CCNC(=O)C(=O)NCC2CCCN2S(=O)(=O)c2ccccc2)cc1OC` (centres undefined), for which the IC50 was 45.9 µM (inactive).

For `COc1cc(/C=C/C(=O)Nc2ccc3nc4n(c(=O)c3c2)CCCC4)cc(OC)c1OC`, the IC50 is 51.5 µM (inactive).

As for `COc1cc(NC(=O)c2ccco2)c(OC)cc1NC(=O)c1cc(OC)c(OC)c(OC)c1`, the pIC50 was 4.74.

Take `COc1cc(C(=O)N/N=C/c2ccc(OC(=O)c3ccccc3)c(OC)c2)ccc1O`: the IC50 is 37.6 µM (inactive). On to `Cc1ccc(C=NNc2nc3c([nH]2)c(=O)n(C)c(=O)n3C)cc1`, for which the IC50 was > 79 µM (inactive). Turning to `COc1ccc(-c2cnc3c(NC=O)cc(-c4cccc(NS(C)(=O)=O)c4)cn23)cc1OC`, the IC50 is 33.5 µM (inactive). Same read-out and setting: under `CCOc1cc(/C=C(\C#N)C(=O)Nc2ccc(S(N)(=O)=O)cc2)ccc1OCCN1CCOCC1` stands > 79 µM (inactive); under `COc1ccc(-c2cc(NC(C)=O)c3ncc(-c4cccc(C(C)=O)c4)n3c2)cc1OC`, > 79 µM (inactive). For `N#Cc1c(-c2ccco2)cc(-c2cccnc2)nc1N`, the pIC50 is 4.84.

Turning to `COc1ccc(N(CC(=O)Nc2cccc(C(C)=O)c2)S(=O)(=O)c2ccc(NC(C)=O)cc2)cc1`, the IC50 is > 79 µM (inactive).

As to `COc1cc(-c2cc(NC(C)=O)c3ncc(-c4ccc(F)cc4)n3c2)cc(OC)c1OC`, the IC50 was > 79 µM (inactive).

On to `CC(=O)c1cccc(-c2cnc3c(NC=O)cc(-c4ccccc4F)cn23)c1`, for which the IC50 is > 79 µM (inactive).

For the compound `COc1cc(-c2cc(NC=O)c3ncc(-c4ccc(C(C)=O)cc4)n3c2)cc(OC)c1OC`, the IC50 was > 79 µM (inactive).

Regarding `O=C(N/N=C/c1ccccn1)c1cc(-c2cccc3ccccc23)n[nH]1`, the pIC50 is 5.54. As to `O=C(COC(=O)c1c2c(nc3ccccc13)/C(=C/c1cccc([N+](=O)[O-])c1)CCC2)NC1CCS(=O)(=O)C1` (centres undefined), the IC50 is > 79 µM (inactive). Consider `O=C(CNC(=O)c1nc[nH]c1C(=O)NCC(=O)OCc1ccccc1)OCc1ccccc1`, for which the IC50 is > 79 µM (inactive). For the compound `COc1cc(OC)cc(C(=O)Nc2ccc(C(=O)Nc3ccccc3OC)cc2)c1`, the IC50 was > 79 µM (inactive). Consider `CCN(CC)C(=O)c1[nH]cnc1C(=O)NCC(=O)OCc1ccccc1`, for which the IC50 is 69.9 µM (inactive). Regarding `COc1ccc(Nc2nnc(SCc3cc(=O)n4ccsc4n3)s2)cc1`, the negative logarithm of the IC50 (pIC50) was 6.59. Same read-out and setting: under `NC(=O)c1nsc(C(=O)N(c2ccccc2)C(C(=O)NCc2ccc(F)cc2)c2ccc(O)cc2)c1N` (centres undefined) stands 4.70. For `COc1ccc(-c2cc3nc(-c4ccccc4)cc(N4CCN(C(C)=O)CC4)n3n2)cc1`, the IC50 is 43.7 µM (inactive).

Regarding `CCOc1ccc2nc(NC(=O)CN3CCC(n4nnc5cc(F)ccc54)CC3)sc2c1`, the negative-log IC50 (pIC50) was 5.02.

Turning to `CC(C)c1ccccc1NC(=O)COC(=O)c1c2c(nc3ccccc13)CCN(Cc1ccccc1)C2`, the IC50 was > 79 µM (inactive).

In the case of `COc1ccc(C(=O)Nc2cccc(/C(C)=N/NC(=O)c3ccc([N+](=O)[O-])c(C)c3)c2)cc1OC`, the pIC50 is 5.29.

In the case of `O=C(CNC(=O)c1[nH]cnc1C(=O)NC(c1ccccc1)c1ccccc1)OCc1ccccc1`, the IC50 is > 79 µM (inactive). For the compound `COc1cccc(-c2cnc3c(NC=O)cc(-c4cc(OC)c(OC)c(OC)c4)cn23)c1`, the IC50 was > 79 µM (inactive). As for `O=C(c1cc(=O)[nH]c2ccccc12)N1CCN(S(=O)(=O)c2ccc(Cl)cc2)CC1`, the IC50 was 58.3 µM (inactive). Regarding `C=CC[C@@H](CC(=O)NCCO)C(=O)NC[C@H](OC(=O)[C@@H](CC=C)Cc1ccc(F)cc1)c1ccccc1`, the IC50 is 42.7 µM (inactive). For `COc1cc(-c2cc(C(=O)NCc3ccco3)c3ccccc3n2)cc(OC)c1OC`, the IC50 was 31.6 µM (inactive).

For the compound `O=C(COC(=O)c1ccccc1C(=O)OCC(=O)NCCc1c[nH]c2ccccc12)NCCc1c[nH]c2ccccc12`, the IC50 was > 79 µM (inactive). The same measure, in the same setting: with `CC(=O)Nc1cc(-c2cccc(NS(C)(=O)=O)c2)cn2c(-c3cccc(C(C)=O)c3)cnc12` the figure was 36.4 µM (inactive).

For the compound `CS(=O)(=O)c1ccc(-c2cnc3c(NC=O)cc(-c4ccsc4)cn23)cc1`, the IC50 is > 79 µM (inactive). Take `COc1ccc(-c2cc(-c3nnc(COC(=O)C4CC4)o3)c3ccccc3n2)cc1OC`: the IC50 is 62.9 µM (inactive).

Consider `CCOC(=O)C1CCN(c2cc3c(cc2NC(=O)c2ccccc2)n(C)c(=O)n3C)CC1`, for which the IC50 is > 79 µM (inactive). As to `COC(=O)c1cc2ccccn2c2c(C(=O)OC)c(C(=O)OC)cc1-2`, the IC50 is > 79 µM (inactive). Consider `COc1cc(-c2cc3nc(NCCOc4ccccc4)ccn3n2)cc(OC)c1OC`, for which the IC50 is > 79 µM (inactive). Turning to `C=CCn1cnc2c(c1=O)c1nc3ccccc3nc1n2/N=C/c1cc(OC)c(OC)c(OC)c1`, the pIC50 was 5.23.
